In patent publication US9284303B2, “Benzimidazole cannabinoid agonists bearing a substituted heterocyclic group” (priority 2006, dated 2016):
Structures can show the parent of a compound that is named as a salt. Where two headings read alike, the source gives them in different places.

Experiments:
[1] = molecular target: T1, human CB1 (hCB1) receptor (Homo sapiens, UniProt P21554); test: Inhibition of forskolin-activated cAMP production upon activation of hCB1 (HTRF), CHO-K1 cells; assay type: cell-based; conditions: CB1 pEC50, hCB1-CHO-K1 cells, forskolin-activated cAMP, pEC50=-log(EC50)
T1 construct: expressed in transfected cells; host or cells: CHO-K1
T1 sequence (P21554 whole entry): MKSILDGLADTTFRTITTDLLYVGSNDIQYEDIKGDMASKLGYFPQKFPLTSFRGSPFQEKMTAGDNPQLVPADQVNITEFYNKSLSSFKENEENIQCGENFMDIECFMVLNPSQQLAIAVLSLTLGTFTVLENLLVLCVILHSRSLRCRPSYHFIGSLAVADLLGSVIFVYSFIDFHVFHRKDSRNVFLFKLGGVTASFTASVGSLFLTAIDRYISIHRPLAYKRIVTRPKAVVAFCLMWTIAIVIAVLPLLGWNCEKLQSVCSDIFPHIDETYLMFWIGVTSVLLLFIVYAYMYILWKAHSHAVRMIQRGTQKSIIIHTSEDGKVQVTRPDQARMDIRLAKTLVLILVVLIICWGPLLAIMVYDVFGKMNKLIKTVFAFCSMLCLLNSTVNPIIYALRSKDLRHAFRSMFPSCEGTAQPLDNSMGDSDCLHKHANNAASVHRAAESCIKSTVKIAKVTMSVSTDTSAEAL
Protocol: (§1) Functional activity of the test compounds was assessed by measuring their potency to inhibit forskolin-activated cAMP production upon activation of the human CB1 (hCB1) or human CB2 (hCB2) receptor through homogenous time resolved fluorescence (HTRF) assays.
CHO-K1 cells stably transfected with either hCB1 or hCB2 were grown up to 80-90% confluence in T175 Falcon flasks in DMEM/NUT MIX F-12 culture medium complemented with 2% Solution A (5.10^6 IU/l penicillin G, 5 g/l streptomycin sulphate, 5.5 g/l pyruvate, 14.6 g/l L-glutamine, 1M NaOH) and 10% foetal calf serum. Before the experiments, medium was removed, cells were washed with PBS/EDTA (140 mM NaCl, 1 mM Naz-EDTA, 8 mM Na2HPO4.2H2O, 8.5 mM KH2PO4, 2.7 mM KCl, 21 mM glucose), resuspended in stimulation buffer (HBSS 1x, IBMX 1 mM, Hepes 5 mM, MgCl2 10 mM, BSA 0.1%, pH 7.4). Cells were diluted to a concentration of 8.10^5 cell/ml for hCB1 experiments and 10^6 cells/ml for hCB2 experiments. Assays were performed using the cAMP Dynamic HTRF kit (CIS bio international, France) according to the recommendations of the manufacturer.
For CB1, each well of a 96 flat bottom black polystyrene assay plate (Costar) was filled with 25 μl stimulation buffer containing 6 μM forskolin and either test compound (in 2% DMSO), 2% DMSO or 2 μM CP55490 (in 2% DMSO). Then, 25 μl of the diluted cells was added (20,000 cells/well). After 30 minutes incubation in dark at room temperature, 25 μl cAMP-XL665 and 25 μl anti-cAMP cryptate (both at a final dilution of 1/80) was added to the cells.
After equilibration of the reaction mixtures for 1 to 24 hours in dark at room temperature, fluorescence was measured at 665 nm and 620 nm using a Discovery microplate fluorescence counter (Perkin Elmer), and the signal ratio of 665 nm/620 nm was calculated. The signal ratios of the test compounds were expressed relative to the signal ratios of the DMSO control (maximal signal ratio, no inhibition of cAMP) and CP55490 or WIN55212-2 for hCB1 and hCB2, respectively (minimal signal ratio, maximal inhibition of cAMP). From the dose response curves generated for each test compound, the dose at which 50% of the maximal inhibition of cAMP level is observed (EC50, expressed in the Tables as pEC50=−log(EC50) values) and the level of inhibition reached with 10 μM of the test compound compared to CP55490 (for hCB1) or WIN55212-2 (for hCB2) was calculated.

[2] = molecular target: T2, human CB2 (hCB2) receptor (Homo sapiens, UniProt P34972); test: Inhibition of forskolin-activated cAMP production upon activation of hCB2 (HTRF), CHO-K1 cells; assay type: cell-based; conditions: for ratio CB2 agonism over CB1 agonism: Table C-1, selectivity hCB2 over hCB1; for EC50: forskolin-activated cAMP, pEC50=-log(EC50); for ratio CB2 over CB1 agonism: Table C-3, comparison of art compounds A to E with compounds of the invention
T2 construct: expressed in transfected cells; host or cells: CHO-K1
T2 sequence (P34972 whole entry): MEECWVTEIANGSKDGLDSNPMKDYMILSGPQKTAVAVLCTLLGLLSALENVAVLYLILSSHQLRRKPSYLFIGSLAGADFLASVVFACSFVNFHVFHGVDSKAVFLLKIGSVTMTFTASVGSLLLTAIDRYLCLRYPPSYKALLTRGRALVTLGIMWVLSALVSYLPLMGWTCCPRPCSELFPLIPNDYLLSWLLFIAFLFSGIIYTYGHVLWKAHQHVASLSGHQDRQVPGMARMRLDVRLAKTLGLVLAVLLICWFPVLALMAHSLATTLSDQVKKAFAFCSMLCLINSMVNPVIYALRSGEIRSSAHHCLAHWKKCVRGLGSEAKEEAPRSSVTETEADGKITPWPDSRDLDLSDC
Protocol: as §1
Before the experiments, medium was removed, cells were washed with PBS/EDTA (140 mM NaCl, 1 mM Naz-EDTA, 8 mM Na2HPO4.2H2O, 8.5 mM KH2PO4, 2.7 mM KCl, 21 mM glucose), resuspended in stimulation buffer (HBSS 1x, IBMX 1 mM, Hepes 5 mM, MgCl2 10 mM, BSA 0.1%, pH 7.4). Cells were diluted to a concentration of 8.10^5 cell/ml for hCB1 experiments and 10^6 cells/ml for hCB2 experiments. Assays were performed using the cAMP Dynamic HTRF kit (CIS bio international, France) according to the recommendations of the manufacturer.
Then, 20 μl of the diluted hCB2-CHO-K1 cells was added (20,000 cells/well). After 30 minutes incubation in dark at room temperature, 10 μl cAMP-XL665 and 10 μl anti-cAMP cryptate (both at a final dilution of 1/100) was added to the cells.

[3] = hCB2-CHO-K1 cells, read-out: CB2 pEC50 (converted)

Row | SMILES | EC50 [1] [nM] | ratio CB2 agonism over CB1 agonism [2] | EC50 [2, 3] [nM] | melting point [°C] | ratio CB2 over CB1 agonism [2] | ratio CB2 agonism over CB1 agonism ([2]; listed as 52) | EC50 ([2]; CB2 pEC50, hCB2-CHO-K1 cells) [nM]
1 | CCNS(=O)(=O)c1ccc(S(=O)(=O)c2ccc3c(c2)nc(C(C)(C)C)n3CC2CCOCC2)s1 [Co. No. 59] | 2290 | 2018 | 1.12 | 158 | – | – | –
2 | CO[C@H]1CC[C@@H](Cn2c(C(C)(C)C)nc3cc(S(=O)(=O)c4ccnc(F)c4)ccc32)CC1 [Co. No. 162] | > 10000 | >27542 | 0.363 | 133.5 | – | – | –
3 | CC(C)(C)c1nc2cc(S(=O)(=O)c3ccnc(N)c3)ccc2n1CC1CCOCC1 [Co. No. 19] | 724 | 638 | 1.12 | 235.9 | 638 | – | –
4 | CC(C)(C)c1nc2cc(S(=O)(=O)c3ccnc(F)c3)ccc2n1CC1CCC(=O)CC1 [Co. No. 134] | 3800 | 2786 | 1.38 | 164.8 | – | – | –
5 | COC(=O)c1cc(C)c(S(=O)(=O)c2ccc3c(c2)nc(C(C)(C)C)n3CC2CCOCC2)s1 [Co. No. 81] | 1070 | 2138 | 0.501 | 185.8 | – | – | –
6 | CC(C)(C)c1nc2cc(S(=O)(=O)c3cncc(C(N)=O)c3)ccc2n1CC1CCOCC1 [Co. No. 44] | 126 | 64 | 2 | 259 | – | – | –
7 | CC(C)(C)c1nc2cc([S+]([O-])c3ccncc3Br)ccc2n1CC1CCOCC1 (stereo not shown) [Co. No. 88] | 1260 | 537 | 2.34 | 184.7 | – | – | –
8 | CC(C)(C)c1nc2cc(S(=O)(=O)c3ncccc3C#N)ccc2n1CC1CCOCC1 [Co. No. 104] | 87.1 | 117 | 0.741 | 100 to 105 | – | – | –
9 | Cc1cc(S(=O)(=O)c2ccc3c(c2)nc(C(C)(C)C)n3CC2CCOCC2)cc[n+]1[O-] [Co. No. 89] | > 10000 | – | 11.2 | 215.3 | – | – | –
10 | COc1ccc(S(=O)(=O)c2ccc3c(c2)nc(C(C)(C)C)n3CC2CCOCC2)cn1 [Co. No. 52] | 229 | – | 0.692 | 198 | – | 331 | –
11 | CC(=O)Nc1cc(S(=O)(=O)c2ccc3c(c2)nc(C(C)(C)C)n3CC2CCOCC2)ccn1 [Co. No. 22] | 2000 | 1758 | 1.12 | 262.3 | 1758 | – | –
12 | CC(C)(C)c1nc2cc(S(=O)(=O)c3ccc(C(=O)N4CCOCC4)o3)ccc2n1CC1CCOCC1 [Co. No. 80] | 10500 | 2483 | 4.17 | 172.1 | – | – | –
13 | CC(C)(C)c1nc2cc(S(=O)(=O)c3cccc(C#N)n3)ccc2n1CC1CCOCC1 [Co. No. 98] | 741 | 794 | 0.955 | 224.5 to 226.7 | – | – | –
14 | COc1ccc(S(=O)(=O)c2ccc3c(c2)nc(C(C)(C)C)n3CC2CCOCC2)nn1 [Co. No. 11] | 60.3 | 48 | 1.26 | 174 to 180 | – | – | –
15 | Cc1nccc(S(=O)(=O)c2ccc3c(c2)nc(C(C)(C)C)n3CC2CCOCC2)n1 [Co. No. 107] | 1550 | 646 | 2.4 | 179.7 | – | – | –
16 | CC(C)(C)c1nc2cc(S(=O)(=O)c3ccnc(F)c3)ccc2n1C[C@H]1CC[C@H](O)CC1 [Co. No. 146] | > 10000 | >3981 | 2.51 | 163.6 | – | – | –

Row | SMILES | EC50 [1] [nM] | ratio CB2 agonism over CB1 agonism [2] | EC50 [2, 3] [nM] | melting point [°C] | ratio CB2 over CB1 agonism [2] | ratio CB2 agonism over CB1 agonism ([2]; listed as 52) | EC50 ([2]; CB2 pEC50, hCB2-CHO-K1 cells) [nM]
17 | CC(=O)c1ccc(S(=O)(=O)c2ccc3c(c2)nc(C(C)(C)C)n3CC2CCOCC2)s1 [Co. No. 40] | 209 | 193 | 1.07 | 151 | – | – | –
18 | CC(O)c1ccc(S(=O)(=O)c2ccc3c(c2)nc(C(C)(C)C)n3CC2CCOCC2)nc1 (stereo not shown) [Co. No. 42] | – | – | 3.98 | 177 to 179 | – | – | 0.631
19 | CC(=O)NCCOc1cc(S(=O)(=O)c2ccc3c(c2)nc(C(C)(C)C)n3CC2CCOCC2)ccn1 [Co. No. 121] | 2820 | 912 | 3.09 | 182.3 | – | – | –
20 | CC(C)(C)c1nc2cc(S(=O)(=O)c3cc[n+]([O-])cc3C(F)(F)F)ccc2n1CC1CCOCC1 [Co. No. 21] | – | – | 3.8 | 205.8 | – | – | –
21 | CC(C)(C)c1nc2cc(S(=O)(=O)c3ccn(/C(F)=C/I)c(=O)c3)ccc2n1CC1CCOCC1 [Co. No. 90] | > 10000 | >3715 | 2.69 | 113.9 | – | – | –
22 | CC(C)(C)c1nc2cc(S(=O)(=O)c3ccnc(OCC(F)(F)F)c3)ccc2n1CC1CCOCC1 [Co. No. 23] | 407 | 398 | 1.02 | 166.7 | 398 | – | –
23 | CC(C)(C)c1nc2cc(S(=O)(=O)c3ccc(C(N)=O)o3)ccc2n1CC1CCOCC1 [Co. No. 12] | 468 | 302 | 1.55 | 234.8 | 302 | – | –
24 | CCC(CC)Cn1c(C(C)(C)C)nc2cc(S(=O)(=O)c3ccnc(F)c3)ccc21 [Co. No. 147] | > 10000 | >10471 | 0.955 | 130.9 | – | – | –
25 | CC(C)(C)c1nc2cc(S(=O)(=O)c3cc(Cl)nc(Cl)c3)ccc2n1CC1CCOCC1 [Co. No. 71] | > 10000 | >13490 | 0.741 | 198 | – | – | –
26 | CC(C)(C)c1nc2cc(S(=O)(=O)c3ccnc(O)c3)ccc2n1CC1CCOCC1 [Co. No. 8] | 4680 | 1514 | 3.09 | > 300 | 1514 | – | –
27 | CC(C)(C)c1nc2cc(S(=O)(=O)c3ccc(C4(C)OCCO4)cn3)ccc2n1CC1CCOCC1 [Co. No. 45] | > 10000 | >3311 | 3.02 | 191 | – | – | –
28 | CC(C)(C)c1nc2cc(S(=O)(=O)c3ccc(S(=O)(=O)N4CCOCC4)cn3)ccc2n1CC1CCOCC1 [Co. No. 66] | > 10000 | >676 | 14.8 | 224 | – | – | –
29 | CC1(C)CC(Cn2c(C(C)(C)C)nc3cc(S(=O)(=O)c4ccnc(F)c4)ccc32)CCO1 (stereo not shown) [Co. No. 149] | > 10000 | >8035 | 1.26 | 159.4 | – | – | –
30 | CC(C)(C)c1nc2cc(S(=O)(=O)c3ccn(/C(F)=C\I)c(=O)c3)ccc2n1CC1CCOCC1 [Co. No. 91] | – | 1995 | 5.01 | 164.4 | – | – | –
31 | CC(C)(C)c1nc2cc(S(=O)(=O)c3ccnc(C#N)c3)ccc2n1CC1CCOCC1 (as salt: methanesulfonate) [Co. No. 93] | – | – | – | 215.7 | – | – | –
